Measurements: patent US20210283097A1, “METHODS OF DIAGNOSING AND TREATING ALZHEIMER'S DISEASE WITH S-EQUOL” (Ausio Pharmaceuticals, LLC, priority 2016, published 2021)
Entries after “also recorded” stand apart in the source; their conditions may differ.

Legend:
[1] = Montreal Cognitive Assessment (MoCA) in Alzheimer's disease subjects, single-blind pilot clinical study; format: in vivo, human; conditions: for MoCA Visit 2 (Mean + SEM): visit 2 = after two weeks of S-equol 10 mg twice a day; for percent MoCA score change between visit 1 and visit 2 (trend): FIG. 1
Experimental: (§1) Alzheimer's disease subjects were recruited through the University of Kansas Alzheimer's Disease Center (ADC). The ADC maintains a clinical cohort whose routine characterizations include Clinical Dementia Rating (CDR) scale ratings, uniform data set (UDS) cognitive testing, and APOE genotyping. The diagnosis of clinic cohort participants is primarily based on CDR and UDS data, and is determined through a consensus conference that includes subspecialty-trained cognitive neurologists and an expert neuropsychologist. Subjects diagnosed with Alzheimer's disease further meet current criteria for that diagnosis in McKhann et al., Alzheimers Dement, 7 (2011) 263-269.
(§2) To qualify for the study, participants had to be female with very mild (CDR 0.5) or mild (CDR 1) Alzheimer's disease. Each participant was required to have a study partner. As part of the informed consent process, the subjects and study partners were told that during different parts of the study the participants would receive either an S-equol capsule or an inert placebo. The placebo could not be distinguished from the S-equol by sight, touch, or taste so although the investigators knew whether participants at any given point were receiving S-equol or placebo, the participants themselves were blind to the actual treatment. The S-equol and placebo capsule were provided by Ausio Pharmaceuticals, LLC (Cincinnati, Ohio).
(§3) Subjects received a two week supply of medication, which uniformly consisted of placebo, and were instructed to take the study medication twice a day. At the end of this initial two-week period participants returned to the ADC clinical trials unit for their first study visit (visit 1; lead-in evaluation). Visit 1 procedures included an assessment of study medication compliance, vital signs, a query for perceived side effects, the Montreal Cognitive Assessment (MoCA), and a 40 ml phlebotomy; the blood was used to measure platelet mitochondria cytochrome oxidase (COX) and citrate synthase (CS) activities. At the completion of this visit the next two weeks of study medication was dispensed, which uniformly consisted of 10 mg S-equol capsule.
(§4) At the end of this second two-week period participants returned to the ADC clinical trials unit for their second study visit (visit 2; active treatment evaluation). The same procedures were performed during the lead-in evaluation and dispensed the next two weeks of study medication, which at this point uniformly consisted of placebo.
(§5) At the end of this final two-week period the participants returned to the ADC clinical trials unit for their third study visit (visit 3; wash-out evaluation). The lead-in and active treatment evaluation procedures were performed again, which completed participation in this single-blind study.
Secondary outcomes included a safety analysis of the S-equol 10 mg twice per day dose and an analysis of MoCA scores.
In addition to summarizing MoCA scores by means and standard errors, the percent change between visit 1 and visit 2 scores, as well as the percent change between visit 1 and visit 3 scores, was calculated for each participant.

rat hippocampal neurons = conditions: cited from earlier work
[2] = system: platelet mitochondria cytochrome oxidase (COX); experiment: Platelet mitochondria COX activity referenced to CS activity (COX/CS) in Alzheimer's disease subjects, single-blind pilot clinical study; format: in vivo, human; conditions: for COX/CS Visit 2 (Mean + SEM): after two weeks of S-equol 10 mg twice a day
Experimental: as §1, §2, §3, §4, §5
Forty milliliter blood samples were collected in tubes containing acid-citrate-dextrose (ACD) tubes as an anticoagulant, and maintained at room temperature. Within 24 hours of phlebotomy the blood was processed by the ADC Mitochondrial Genomics and Metabolism Core. To initiate the processing procedure, platelets were isolated by centrifugation and enriched mitochondrial fractions prepared using previously described methods. Such procedures involved nitrogen cavitation to rupture platelets followed by centrifugation to collect mitochondria.
The protein concentrations of the enriched mitochondrial fractions were measured using a BCA protein assay kit (BioRad, Hercules, Calif.). COX Vmax activity was determined as a pseudo first order-rate constant (sec−1/mg) by measuring the oxidation of reduced cytochrome c at 550 nm.
In addition to measuring COX activity, each sample's citrate synthase (CS) Vmax activity (nmol/min/mg) was measured. This assay was performed spectrophotometrically by following the formation of 5-thio-2-nitrobenzoate (412 nm) following the addition of 100 μM oxaloacetate at 30° C. […]

cytochrome oxidase (COX) = conditions: brains from ovariectomized mice; cited from earlier work
[3] = Safety analysis of S-equol 10 mg twice per day in Alzheimer's disease subjects; format: in vivo, human; conditions: 10 mg twice per day for two weeks, Alzheimer's disease patients
Experimental: as §3, §4
At the end of this final two-week period the participants returned to the ADC clinical trials unit for their third study visit (visit 3; wash-out evaluation). The lead-in and active treatment evaluation procedures were performed again, which completed participation in this single-blind study. […]

Oc1ccc([C@H]2COc3cc(O)ccc3C2)cc1 [S-equol]
MoCA Visit 2 (Mean + SEM) ([1]; APOE4 Carriers, 8 participants): 15.8 ± 2.5 | percent MoCA score change between visit 1 and visit 2 (trend) ([1]; APOE4 carriers): trended in a downward direction | MoCA Visit 2 (Mean + SEM) ([1]; APOE4 non-Carriers, 7 participants): 13.3 ± 2.1 | percent MoCA score change between visit 1 and visit 2 (trend) ([1]; APOE4 non-carriers): upward direction | difference in mean MoCA scores between visits, or between APOE4 carriers and non-carriers ([1]; Table 2): No significant differences | MoCA Visit 2 (Mean + SEM) ([1]; Total, 15 participants): 14.6 ± 6.6 | respiratory and maximal glycolysis fluxes (rat hippocampal neurons): increase | COX/CS Visit 2 (Mean + SEM) ([2]; APOE4 Carriers, 8 participants): 4.3E−05 ± 3.5E−06 | COX/CS Visit 2 (Mean + SEM) ([2]; APOE4 non-Carriers, Outlier Excluded, 6 participants): 4.7E−05 ± 7.1E−06 | COX/CS Visit 2 (Mean + SEM) ([2]; APOE4 non-Carriers, Outlier Included, 7 participants): 9.2E−05 ± 4.6E−05 | percent COX/CS change between visit 1 and visit 2 (trend), non-APOE4 carriers versus APOE4 carriers ([2]; FIGS. 3(A) and 3(B)): trended higher | difference in mean COX/CS values between visits, or between APOE4 carriers and non-carriers ([2]; Table 3): No significant differences | COX/CS Visit 2 (Mean + SEM) ([2]; Total, Outlier Excluded, 14 participants): 4.5E−05 ± 3.5E−06 | COX/CS Visit 2 (Mean + SEM) ([2]; Total, Outlier Included, 15 participants): 6.6E−05 ± 2.2E−05 | participants with a positive COX/CS response pattern (responders) ([2]; slope visit 1 to 2 greater than slope visit 2 to 3, COX activity referenced to CS activity): 11 of the 15 | cytochrome oxidase (COX) activity and COX1 protein levels (cytochrome oxidase (COX)): increase | adverse events [3]: No treatment-related adverse events; also recorded: No adverse events occurred
